Test results reported in ChEMBL document CHEMBL1125711, “Flavins as potential antimalarials. 2. 3-Methyl-10-(substituted-phenyl) flavins” (J Med Chem, 1991).

Tests used:
Mus musculus [1] = assay: Increase in mean survival days was determined in mice after ip administration of 50 mg/kg; format: functional; conditions: route intraperitoneal
Mus musculus [2] = assay: Increase in mean survival days was determined in mice after ip administration of 10 mg/kg; format: functional; conditions: route intraperitoneal
Mus musculus [3] = assay: Increase in mean survival days was determined in mice after ip administration of 15 mg/kg; format: functional; conditions: route intraperitoneal
Mus musculus [4] = assay: (§1) Increase in mean survival days was determined in mice after ip administration of 70 mg/kg; toxic; format: functional; conditions: route intraperitoneal
[5] = test system: Plasmodium vinckei vinckei; assay: Antimalarial activity against Plasmodium vinckei V52 after 20 mg/kg intraperitoneal dose; format: functional
[6] = test system: Plasmodium vinckei vinckei; assay: Antimalarial activity against Plasmodium vinckei V52 on 30 mg/kg intraperitoneal dose; format: functional
Mus musculus [7] = assay: Increase in mean survival days was determined in mice after ip administration of 30 mg/kg; format: functional; conditions: route intraperitoneal
Mus musculus [8] = assay: Antimalarial activity was evaluated against Plasmodium vinckei V52 after intraperitoneal administration at dose 15 mg/kg; format: functional
Mus musculus [9] = assay: Antimalarial activity was evaluated against Plasmodium vinckei vinckei V52 after intraperitoneal administration at dose 40 mg/kg.; format: functional
[10] = test system: Plasmodium vinckei vinckei; assay: Antimalarial activity against Plasmodium vinckei V52 on 10 mg/kg intraperitoneal dose; format: functional
[11] = test system: Plasmodium vinckei vinckei; assay: Antimalarial activity against Plasmodium vinckei V52 on 70 mg/kg intraperitoneal dose; format: functional
Mus musculus [12] = assay: Increase in mean survival days was determined in mice after ip administration of 40 mg/kg; format: functional; conditions: route intraperitoneal
Mus musculus [13] = assay: Increase in mean survival days was determined in mice after ip administration of 20 mg/kg; format: functional; conditions: route intraperitoneal
Mus musculus [14] = organism: Mus musculus; assay: Effective dose required to obtain a parasitaemia of 40% 48 hours after treatment in mice; format: functional
Mus musculus [15] = assay: Antimalarial activity was evaluated against Plasmodium vinckei V52 after intraperitoneal administration at dose 50 mg/kg; format: functional
Mus musculus [16] = assay: Antimalarial activity was evaluated against Plasmodium vinckei vinckeii V52 after intraperitoneal administration at dose 40 mg/kg; format: functional
Mus musculus [17] = assay: Increase in mean survival days was determined in mice after ip administration of 50 mg/kg; toxic; format: functional; conditions: route intraperitoneal
Mus musculus [18] = assay: Antimalarial activity was evaluated against Plasmodium vinckei V52 after intraperitoneal administration at dose 25 mg/kg; format: functional
Mus musculus [19] = assay: Antimalarial activity was evaluated against Plasmodium vinckei vinckei V52 after intraperitoneal administration at dose 50 mg/kg.; format: functional
Mus musculus [20] = assay: Antimalarial activity was evaluated against Plasmodium vinckei vinckeii V52 after intraperitoneal administration at dose 25 mg/kg; format: functional
[21] = test system: Plasmodium vinckei vinckei; assay: Antimalarial activity against Plasmodium vinckei vinckeii V52 at 20 mg/kg intraperitoneally dose; format: functional; conditions: route intraperitoneal
Mus musculus [22] = assay: Antimalarial activity was evaluated against Plasmodium vinckei V52 after intraperitoneal administration at dose 70 mg/kg; format: functional
Mus musculus [23] = assay: Antimalarial activity was evaluated against Plasmodium vinckei vinckeii V52 after intraperitoneal administration at dose 50 mg/kg; format: functional
Mus musculus [24] = assay: Antimalarial activity was evaluated against Plasmodium vinckei V52 after intraperitoneal administration at dose 30 mg/kg; format: functional
[25] = test system: Plasmodium vinckei vinckei; assay: Antimalarial activity against Plasmodium vinckei vinckeii V52 at 15 mg/kg intraperitoneally dose; format: functional; conditions: route intraperitoneal
[26] = test system: Plasmodium vinckei vinckei; assay: Antimalarial activity against Plasmodium vinckei vinckeii V52 after 10 mg/kg intraperitoneally dose; format: functional; conditions: route intraperitoneal
Mus musculus [27] = assay: Antimalarial activity was evaluated against Plasmodium vinckei vinckei V52 after intraperitoneal administration at dose 50 mg/kg; format: functional
Mus musculus [28] = assay: Increase in mean survival days was determined in mice after ip administration of 60 mg/kg; format: functional; conditions: route intraperitoneal
Mus musculus [29] = assay: Antimalarial activity was evaluated against Plasmodium vinckei vinckei V52 after intraperitoneal administration at dose 60 mg/kg; format: functional
Mus musculus [30] = assay: Antimalarial activity was evaluated against Plasmodium vinckei V52 after intraperitoneal administration at dose 60 mg/kg; format: functional
Mus musculus [31] = organism: Mus musculus; assay: Effective dose required to obtain a parasitaemia of 40% 48 hours after treatment in mice.; format: functional
Mus musculus [32] = assay: Antimalarial activity was evaluated against Plasmodium vinckei vinckei V52 after intraperitoneal administration at dose 10 mg/kg; format: functional
Mus musculus [33] = assay: Antimalarial activity was evaluated against Plasmodium vinckei vinckei V52 after intraperitoneal administration at dose 70 mg/kg; format: functional
Mus musculus [34] = assay: Antimalarial activity was evaluated against Plasmodium vinckei V52 after intraperitoneal administration at dose 20 mg/kg; format: functional
Mus musculus [35] = assay: Antimalarial activity was evaluated against Plasmodium vinckei V52 after intraperitoneal administration at dose 40 mg/kg; format: functional
Mus musculus [36] = assay: as §1; format: ADME, organism-based; design: dose 70 mg/kg, route intraperitoneal; conditions: in vivo
Mus musculus [37] = assay: Antimalarial activity was evaluated against Plasmodium vinckei vinckei V52 after intraperitoneal administration at dose 25 mg/kg; format: functional
Mus musculus [38] = assay: Antimalarial activity was evaluated against Plasmodium vinckei vinckei V52 after intraperitoneal administration at dose 40 mg/kg; format: functional
Mus musculus [39] = assay: Antimalarial activity was evaluated against Plasmodium vinckei vinckei V52 after intraperitoneal administration at dose 30 mg/kg; format: functional
Mus musculus [40] = assay: Increase in mean survival days was determined in mice after ip administration of 25 mg/kg; toxic; format: functional; conditions: route intraperitoneal
Mus musculus [41] = assay: Increase in mean survival days was determined in mice after ip administration of 20 mg/kg; toxic; format: functional; conditions: route intraperitoneal
Mus musculus [42] = assay: Antimalarial activity was evaluated against Plasmodium vinckei V52 after intraperitoneal administration at dose 10 mg/kg; format: functional
[43] = test system: Plasmodium vinckei vinckei; assay: Increase in mean survival days of Plasmodium inoculated mice (Mus musculus) after 70 mg/Kg intraperitoneal dose; format: functional
Mus musculus [44] = assay: Increase in mean survival days was determined in mice after ip administration of 40 mg/kg; toxic; format: functional; conditions: route intraperitoneal
[45] = test system: Plasmodium vinckei vinckei; assay: Antimalarial activity against Plasmodium vinckei V52 after 30 mg/kg intraperitoneal dose
Mus musculus [46] = assay: Antimalarial activity was evaluated against Plasmodium vinckei vinckeii V52 after intraperitoneal administration at dose 60 mg/kg; format: functional
Mus musculus [47] = assay: Increase in mean survival days was determined in mice after ip administration of 60 mg/kg; toxic; format: functional; conditions: route intraperitoneal
Mus musculus [48] = assay: Increase in mean survival days was determined in mice after ip administration of 30 mg/kg; toxic; format: functional; conditions: route intraperitoneal
Mus musculus [49] = assay: Antimalarial activity was evaluated against Plasmodium vinckei vinckeii V52 after intraperitoneal administration at dose 15 mg/kg; format: functional

Compound	Mean survival days (Mus musculus [1]) [days]	Mean survival days (Mus musculus [2]) [days]	Cured [5] [%]	Cured [6] [%]	Mean survival days (Mus musculus [7]) [days]	Cured [10] [%]	Cured [11] [%]	ED40 (Mus musculus [14]) [µmol/kg]	Cured (Mus musculus [22]) [%]	Cured (Mus musculus [27]) [%]	Mean survival days (Mus musculus [28]) [days]	further results
Cn1c(=O)nc2n(-c3ccc(F)cc3)c3ccccc3nc-2c1=O	-0.5	0	0	80	0	0	0	103				Mean survival days (Mus musculus [3]): 0 days; Mean survival days (Mus musculus [4]): -0.6 days; Cured (Mus musculus [8]): 0%; Cured (Mus musculus [9]): 80%; Mean survival days (Mus musculus [12]): 0 days; Mean survival days (Mus musculus [13]): 13.4 days; Cured (Mus musculus [15]): 20%
Cn1c(=O)nc2n(-c3ccc(Cl)cc3)c3ccccc3nc-2c1=O		0.3	100	100		20	0	38.8				Cured (Mus musculus [16]): 100%; Mean survival days (Mus musculus [3]): 4 days; Mean survival days (Mus musculus [4]): -1 days; Cured (Mus musculus [8]): 80%; Mean survival days (Mus musculus [17]): -0.8 days; Cured (Mus musculus [18]): 100%; Cured (Mus musculus [19]): 20%
Cn1c(=O)nc2n(-c3ccc(Br)cc3)c3ccccc3nc-2c1=O								38.4	0			Cured (Mus musculus [20]): 100%; Cured [21]: 100%; Cured (Mus musculus [23]): 40%; Cured (Mus musculus [24]): 100%; Cured [25]: 100%; Cured [26]: 0%
COc1cc(OC)cc(-n2c3nc(=O)n(C)c(=O)c-3nc3ccccc32)c1	0	0	0		0	0	100	219		0	3	Cured (Mus musculus [29]): 20%
Cc1ccc(-n2c3nc(=O)n(C)c(=O)c-3nc3ccccc32)cc1C	0.3	0.3			0.8					20	0.5	Cured (Mus musculus [30]): 60%; Cured (Mus musculus [24]): 0%; ED40 (Mus musculus [31]): 210 µmol/kg; Cured (Mus musculus [32]): 0%; Cured (Mus musculus [33]): 100%; Mean survival days (Mus musculus [13]): 0.2 days; Cured (Mus musculus [34]): 0%
Cn1c(=O)nc2n(-c3ccc(S(C)(=O)=O)cc3)c3ccccc3nc-2c1=O		0		0	0.2	0	0					Mean survival days (Mus musculus [4]): -2 days; Mean survival days (Mus musculus [17]): -0.8 days; Cured (Mus musculus [35]): 0%; Mean survival days (Mus musculus [12]): -0.5 days; Cured (Mus musculus [15]): 0%
Cn1c(=O)nc2n(-c3cc(Cl)ccc3Cl)c3ccccc3nc-2c1=O		0		0	0	0			0			Mean survival days (Mus musculus [36]): -0.6 days
Cc1cc(Cl)cc(-n2c3nc(=O)n(C)c(=O)c-3nc3ccccc32)c1		0.2				0	100	85.7		100		Cured (Mus musculus [37]): 100%; Mean survival days (Mus musculus [3]): 0.5 days; Cured (Mus musculus [38]): 100%; Cured (Mus musculus [8]): 60%; Cured (Mus musculus [39]): 100%; Mean survival days (Mus musculus [13]): 1 days; Cured (Mus musculus [34]): 80%
CCc1ccccc1-n1c2nc(=O)n(C)c(=O)c-2nc2ccccc21		0	0			0						Cured (Mus musculus [37]): 0%; Mean survival days (Mus musculus [40]): -2 days; Mean survival days (Mus musculus [41]): -2 days
Cn1c(=O)nc2n(-c3cc(C(F)(F)F)cc(C(F)(F)F)c3)c3ccccc3nc-2c1=O	0	0			0				0			Cured (Mus musculus [42]): 0%; Cured (Mus musculus [23]): 0%; Mean survival days [43]: 0 days; Cured (Mus musculus [24]): 0%; Mean survival days (Mus musculus [13]): 0 days; Cured (Mus musculus [34]): 0%
Cc1ccc(-n2c3nc(=O)n(C)c(=O)c-3nc3ccccc32)c(C)c1		0.4			1.3	0	0			0		Mean survival days (Mus musculus [44]): -1.7 days; Cured (Mus musculus [38]): 40%; Mean survival days (Mus musculus [4]): -2 days; Mean survival days (Mus musculus [17]): -2 days; Cured [45]: 20%
Cn1c(=O)nc2n(-c3ccccc3)c3ccccc3nc-2c1=O	0.3	0		0	0	0	60				0.5	Cured (Mus musculus [30]): 20%; Mean survival days [43]: 1 days; ED40 (Mus musculus [31]): 248 nM/kg; Cured (Mus musculus [15]): 0%
Cn1c(=O)nc2n(-c3cccc(C(F)(F)F)c3)c3ccccc3nc-2c1=O		1.4	100	100		33		79.3	0	100	10	Cured (Mus musculus [37]): 100%; Cured (Mus musculus [38]): 100%; Mean survival days (Mus musculus [4]): 7.5 days; Cured (Mus musculus [8]): 100%; Cured (Mus musculus [29]): 40%
Cn1c(=O)nc2n(-c3cccc([N+](=O)[O-])c3)c3ccccc3nc-2c1=O									0		1	Cured (Mus musculus [42]): 0%; Mean survival days [43]: -0.5 days; Cured (Mus musculus [24]): 0%; Cured (Mus musculus [46]): 0%
Cc1cc(C)cc(-n2c3nc(=O)n(C)c(=O)c-3nc3ccccc32)c1	5.5	0				0		105		60		Cured (Mus musculus [37]): 100%; Mean survival days (Mus musculus [3]): 1 days; Cured (Mus musculus [38]): 100%; Mean survival days (Mus musculus [47]): 0.4 days; Cured (Mus musculus [8]): 60%; Cured (Mus musculus [39]): 100%; Cured (Mus musculus [34]): 100%; Cured (Mus musculus [29]): 0%
COc1ccc(-n2c3nc(=O)n(C)c(=O)c-3nc3ccccc32)cc1	2	0	0		0.4	0	60	138			1	Cured (Mus musculus [30]): 80%; Mean survival days (Mus musculus [36]): -0.5 days; Cured (Mus musculus [35]): 20%; Mean survival days (Mus musculus [12]): 1 days; Cured (Mus musculus [15]): 80%
Cc1ccccc1-n1c2nc(=O)n(C)c(=O)c-2nc2ccccc21		-0.2	0	0		0						Mean survival days (Mus musculus [48]): -2 days; Mean survival days (Mus musculus [41]): -1 days
Cn1c(=O)nc2n(-c3cccc(Br)c3)c3ccccc3nc-2c1=O	1	0			0				100		-1	Cured (Mus musculus [42]): 0%; Cured (Mus musculus [16]): 0%; Mean survival days (Mus musculus [3]): 0 days; Cured (Mus musculus [49]): 0%; Cured (Mus musculus [23]): 80%; Cured (Mus musculus [24]): 0%; Mean survival days (Mus musculus [12]): 0 days; Cured (Mus musculus [46]): 80%
Cc1cc(-n2c3nc(=O)n(C)c(=O)c-3nc3ccccc32)ccc1Cl	0.3	0	0		0	0	80	182				Cured (Mus musculus [30]): 100%; Mean survival days [43]: 2 days; Cured (Mus musculus [35]): 0%; Mean survival days (Mus musculus [12]): 0.3 days; Cured (Mus musculus [15]): 25%
